In the assay the test system is Wnt reporter. Nature of the assay: Wnt reporter (Super 8X Topflash, TCF promoter) luciferase IC50 assay in STF and STF3A cells. In kind it is cell-based. To be noted: for inhibition of the Wnt reporter: HEK293 cells stimulated with either exogenous (STF) or endogenous Wnt 3a (STF3a); for IC50: range over STF (exogenous Wnt3a, paracrine) and STF3A (endogenous Wnt3a, autocrine) HEK293 cells, 24 hours incubation. As for the experimental part:
STF and STF3A cells were cultured in DMEM, 4500 mg/L glucose supplemented with 10% fetal bovine serum, 2 mM L-glutamine, 110 mg/L sodium pyruvate and Penicillin/Streptomycin.
STF cells are HEK293 cells stably expressing the Super 8X Topflash M50 (http://www.addgene.org/12456/; the entire content of which is incorporated herein by reference) reporter. STF3A cells are HEK293 cells stably expressing both Super 8X Topflash reporter and pPGK-mWnt3A. The above cell lines are a gift from David Virshup.
L-Wnt3A cells were cultured in DMEM, 4500 mg/L glucose supplemented with 10% fetal bovine serum and 2 mM L-glutamine and 110 mg/L sodium pyruvate and Penicillin/Streptomycin. Wnt3A-Conditioned media was prepared with L-Wnt3A cells cultured according to recommended protocols from ATCC (http://www.atcc.org/products/all/CRL-2647.aspx#culturemethod).
Unless otherwise indicated, all experiments described herein that call for supplemental Wnt3a utilize Wnt3a conditioned media prepared by harvesting media from L-cells stably transfected with a Wnt3a coding construct (available from ATCC #CRL-2647). The cells are cultured in DMEM containing 10% fetal bovine serum (FBS). The medium, harvested from adherent cells cultured to about 80% confluency over 4 days, is purified through a 0.2 μm filter and stored at 4° C. over several months without an appreciable loss in activity [Willert et al. Nature 423, 448-52 (2003)].
STF and STF3A cells were seeded in 96 well plates, with 20,000 cells in 100 μL media per well. Following 16 hours incubation, 50 μL of media per well containing STF cells were replaced with the same volume of Wnt3A-Conditioned media.
iCRT3 and analogs were tested in triplicates at a concentration range of 50 μM-0.00013 μM, at 5-fold dilutions. Cells were incubated with the compounds for 24 hours.
Cell viability was measured after incubation with 100 μL of PrestoBlue® Cell Viability Reagent in DMEM (1:9) for 30 minutes. Following fluorescence measurements, media containing PrestoBlue reagents was aspirated. Cell were lysed in 60 μL of Dual-Glo® Reagent from the Dual-Glo® Luciferase Assay System. Luciferase activity was quantified with a luminometer after 10 minutes of incubation at room temperature.
Background subtracted luminescence readings (RLU) from the Dual-Glo® Luciferase assay were normalized against background subtracted fluorescence values (RFU) from the PrestoBlue® Cell Viability assay.
The RLU/RFU values were plotted using GraphPad Prism (www.graphpad.com). The curve was fitted with a three parameter curve fitting equation: Y=Min value+(Max value−Min value)/[1+10̂(X−lg IC50)].
Cell lines tested include STF, which are HEK293 cells expressing firefly luciferase under the control of the TCF promoter, and STF3A, which are the same as STF but also expresses Wnt3a constitutively. The two cell lines facilitate the testing of the compounds in the context of Wnt signaling activated in a paracrine (STF) versus autocrine (STF3A) fashion.
Day 0—Seed cells in 96-well plates (20,000 cells per well)
Day 1—Add compounds. For STF cells, half of the medium was also changed to Wnt3a conditioned medium.
Day 2—Measure PrestoBlue (cell viability) and Dual-Glo luciferase (TCF promoter activity).
The concentration range for iCRT3 was 10 μM-0.0000001 μM. All other compounds were tested at a concentration range of 10 μM-0.000026 μM.

The results in this text go back to US20170355686A1, “NOVEL OXAZOLE COMPOUNDS AS BETA CATENIN MODULATORS AND USES THEREOF” (NEW YORK UNIVERSITY, priority 2014, published 2017).

As a reminder, the IC50 is the midpoint of a concentration-inhibition curve. Higher therefore signals weaker potency in that assay.

For `CCc1ccc(-c2nc(CSCC(=O)NCCc3cccnc3)c(C)o2)cc1` [II-7], the “inhibition of the Wnt reporter” value is reported as “dose dependent inhibition” and the IC50 lay in the range of 2 to 8 µM.
Take `CCc1ccc(-c2nc(CSCC(=O)NCCc3ccc(F)cc3)c(C)o2)cc1` [II-1, 2-[2-(4-ethyl-phenyl)-5-methyl-oxazol-4-ylmethylsulfanyl]-N-[2-(4-fluoro-phenyl)-ethyl]-acetamide]: the “inhibition of the Wnt reporter” value is recorded as “dose dependent inhibition” and the IC50 is 2 to 8 µM.
For the compound `CCc1ccc(-c2nc(CSCC(=O)NCCc3ccccc3)c(C)o2)cc1` [iCRT3, reference compound], the “inhibition of the Wnt reporter” value is given as “dose dependent inhibition” and the IC50 fell in the range of 14 to 30 µM.
